Drawing on patent publication EP2272817A1, “PAI-1 INHIBITOR” (Institute of Medicinal Molecular Design, Inc., priority 2008, dated 2009), this text covers inhibition for 35 compounds.

Sequence of recombinant human PAI-1 (P05121 24-402): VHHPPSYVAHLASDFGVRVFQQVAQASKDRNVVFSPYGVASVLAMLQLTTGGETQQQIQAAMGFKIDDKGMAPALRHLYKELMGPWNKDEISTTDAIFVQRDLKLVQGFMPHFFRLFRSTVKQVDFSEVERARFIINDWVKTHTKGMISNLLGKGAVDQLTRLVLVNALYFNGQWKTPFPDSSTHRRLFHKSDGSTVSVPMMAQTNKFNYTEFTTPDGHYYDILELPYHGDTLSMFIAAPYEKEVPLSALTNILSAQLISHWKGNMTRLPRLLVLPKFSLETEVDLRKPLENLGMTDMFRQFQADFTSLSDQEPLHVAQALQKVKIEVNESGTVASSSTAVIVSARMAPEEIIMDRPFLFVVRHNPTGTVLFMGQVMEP

The target of this assay is recombinant human PAI-1 (Homo sapiens, UniProt P05121). The assay is described as follows: Test Example 2: Human PAI-1 Inhibitory Activity (pH 7.4 HEPES buffer, 10 minutes incubation with two-chain tPA). The format is biochemical. Also noted: purchased Molecular Innovations, Inc. To be noted: read-out: Inhibition Rate of PAI-1 Activity (%). As to the method:
0.1 M HEPES, 0.1 M NaCl. 1 mM EDTA. 0.1 % Polyethylene glycol 8,000 (Hampton Research Corporation),
2 mM Dimethyldecylphoshine oxide [Apo-10] (Fluka Corporation)
On to `CCCCCOc1ccc(-c2ccc(OC(F)(F)F)cc2)cc1N(CCCCc1ccc(F)cc1)C(=O)C(=O)O` [Compound 382], for which the inhibition at 0.1 µM amounted to 13%, the inhibition at 0.3 µM is 12%, the inhibition at 1 µM is 84% and the inhibition at 3 µM was determined as 97%.
The like results for `O=C(O)C(=O)N(CCCCc1ccccc1)c1cc(-c2ccc(OC(F)(F)F)cc2)ccc1OCCC(F)(F)F` [Compound 383] were, in that order, 2%, 6%, 32% and 98%.
For `CCCCCOc1ccc(-c2ccc(OC(F)(F)F)cc2)cc1N(CCCCc1ccc(Cl)cc1)C(=O)C(=O)O` [Compound 384], the inhibition at 0.1 µM amounted to 0%, the inhibition at 0.3 µM stood at 11%, the inhibition at 1 µM worked out at 91% and the inhibition at 3 µM was 95%.
Consider `CCCCCCCCCCCCCCCOc1cc(-c2ccc(OC(F)(F)F)cc2)ccc1N(CCCCc1ccccc1)C(=O)C(=O)O` [Compound 385], for which the inhibition at 0.1 µM is 74%, the inhibition at 0.3 µM was greater than 99%, the inhibition at 1 µM was greater than 99% and the inhibition at 3 µM is greater than 99%.
As to `CCCCCCCOc1cc(-c2ccc(OC(F)(F)F)cc2)ccc1N(CCCCc1ccccc1)C(=O)C(=O)O` [Compound 386], the inhibition at 0.1 µM is 5%, the inhibition at 0.3 µM turned out to be 18%, the inhibition at 1 µM was greater than 99% and the inhibition at 3 µM was greater than 99%.
Take `CCCCCCCCCOc1ccc(N(CCCCc2ccccc2)C(=O)C(=O)O)cc1-c1ccc(OC(F)(F)F)cc1` [Compound 387]: the inhibition at 0.1 µM was determined as 66%, the inhibition at 0.3 µM is greater than 99%, the inhibition at 1 µM is greater than 99% and the inhibition at 3 µM was greater than 99%.
For `CCCCCCCCCOc1cc(N(Cc2ccc(C(C)(C)C)cc2)C(=O)C(=O)O)ccc1-c1ccc(OC(F)(F)F)cc1` [Compound 388], the inhibition at 0.1 µM was 75%, the inhibition at 0.3 µM is greater than 99%, the inhibition at 1 µM was greater than 99% and the inhibition at 3 µM is greater than 99%.
On to `CCCCCCCCCOc1cc(N(CCCCc2ccccc2)C(=O)C(=O)O)ccc1-c1ccc(OC(F)(F)F)cc1` [Compound 389], for which the inhibition at 0.1 µM came to 65%, the inhibition at 0.3 µM came out at 97%, the inhibition at 1 µM is greater than 99% and the inhibition at 3 µM was greater than 99%.
For `CCCCCOc1ccc(-c2ccc(C(F)(F)F)cc2)cc1N(CCCCc1ccccc1)C(=O)C(=O)O` [Compound 390], the inhibition at 0.1 µM turned out to be 4%, the inhibition at 0.3 µM is 12%, the inhibition at 1 µM is 79% and the inhibition at 3 µM came to 87%.
Regarding `CCCCCOc1ccc(-c2cccc(OC(F)(F)F)c2)cc1N(CCCCc1ccccc1)C(=O)C(=O)O` [Compound 391], the inhibition at 0.1 µM stood at 10%, the inhibition at 0.3 µM is 8%, the inhibition at 1 µM amounted to 69% and the inhibition at 3 µM was found to be 89%.
The like results for `CCCCCOc1cc(-c2ccc(C(F)(F)F)cc2)ccc1N(CCCCc1ccccc1)C(=O)C(=O)O` [Compound 392] were, in that order, 7%, 14%, 77% and greater than 99%.
For `CCCCCOc1cc(-c2cccc(OC(F)(F)F)c2)ccc1N(CCCCc1ccccc1)C(=O)C(=O)O` [Compound 393] the same measures were 8%, 19%, 75% and 97%.
Take `CCCCCCCOc1ccc(N(CCCCc2ccccc2)C(=O)C(=O)O)cc1-c1ccc(OC(F)(F)F)cc1` [Compound 394]: the inhibition at 0.1 µM came to 13%, the inhibition at 0.3 µM came to 69%, the inhibition at 1 µM was found to be 98% and the inhibition at 3 µM was greater than 99%.
Consider `O=C(O)c1cc(-c2ccc(OC(F)(F)F)cc2)ccc1OCc1ccccc1` [Compound 401], for which the inhibition at 3 µM turned out to be 15%, the inhibition at 10 µM is 17% and the inhibition at 25 µM was determined as 53%.
In the case of `CCCCOc1ccc(-c2ccc(OC(F)(F)F)cc2)cc1C=CC(=O)O` [Compound 405], the inhibition at 1 µM was 14%, the inhibition at 3 µM came to 63%, the inhibition at 10 µM is greater than 99% and the inhibition at 25 µM stood at 95%.
The like results for `CCCCOc1ccc(-c2ccc(OC(F)(F)F)cc2)cc1CCC(=O)O` [Compound 407] were, in that order, 14%, 41%, greater than 99% and 98%.
The like results for `CC(C)(C)c1ccc(COc2ccc(NS(=O)(=O)c3ccc(OC(F)(F)F)cc3)cc2CCC(=O)O)cc1` [Compound 415] were, in that order, 41%, 98%, greater than 99% and greater than 99%.
As to `CN(C(=O)c1ccc(OC(F)(F)F)cc1)c1ccc(OCc2ccc(C(C)(C)C)cc2)c(CCC(=O)O)c1` [Compound 416], the inhibition at 1 µM was found to be 26%, the inhibition at 3 µM turned out to be 54%, the inhibition at 10 µM was greater than 99% and the inhibition at 25 µM was greater than 99%.
On to `CC(C)(C)c1ccc(COc2ccc(N3CCN(c4ccc(OC(F)(F)F)cc4)CC3)cc2/C=C/C(=O)O)cc1` [Compound 418], for which the inhibition at 1 µM is 73%, the inhibition at 3 µM came out at 95%, the inhibition at 10 µM was determined as 94% and the inhibition at 25 µM came to 90%.
As to `CC(C)(C)c1ccc(COc2ccc(N3CCN(c4ccc(OC(F)(F)F)cc4)CC3)cc2CCC(=O)O)cc1` [Compound 419], the inhibition at 1 µM was determined as 41%, the inhibition at 3 µM was found to be 93%, the inhibition at 10 µM worked out at 98% and the inhibition at 25 µM was greater than 99%.
For `CC(C)(C)c1ccc(COc2ccc(-c3ccc(OC(F)(F)F)cc3)cc2C(=O)O)cc1` [Compound 421], the inhibition at 0.1 µM amounted to 0%, the inhibition at 0.3 µM amounted to 3%, the inhibition at 1 µM came out at 14% and the inhibition at 3 µM was determined as 81%.
Consider `CCCCC(CC(=O)O)c1cc(-c2ccc(OC(F)(F)F)cc2)ccc1Oc1ccc(C(C)(C)C)cc1` (stereo not drawn) [Compound 422], for which the inhibition at 0.1 µM stood at 12%, the inhibition at 0.3 µM was found to be 24%, the inhibition at 1 µM was 72% and the inhibition at 3 µM was greater than 99%.
The like results for `CCCCC(Nc1cc(-c2ccc(OC(F)(F)F)cc2)ccc1Oc1ccc(C(C)(C)C)cc1)C(=O)O` (stereo not drawn) [Compound 423] were, in that order, 1%, 1%, 74% and 96%.
For `CCCCCOc1cc(-c2ccc(OC(F)(F)F)cc2)cc(OCCCCC)c1OCC(=O)O` [Compound 424] the same measures were 0%, 4%, 38% and greater than 99%.
As to `CCCCCCCOc1cc(-c2ccc(OC(F)(F)F)cc2)cc(OCCCCCCC)c1OCC(=O)O` [Compound 425], the inhibition at 0.1 µM stood at 17%, the inhibition at 0.3 µM was 54% and the inhibition at 1 µM was greater than 99%.
Regarding `CCCCC(Oc1cc(Oc2ccc(C(C)(C)C)cc2)cc(-c2ccc(OC(F)(F)F)cc2)c1)C(=O)O` (stereo not drawn) [Compound 426], the inhibition at 0.1 µM came out at 10%, the inhibition at 0.3 µM turned out to be 29%, the inhibition at 1 µM was 95% and the inhibition at 3 µM stood at 97%.
Turning to `CC(C)(C)c1ccc(Oc2cc(OCC(=O)O)cc(-c3ccc(OC(F)(F)F)cc3)c2)cc1` [Compound 427], the inhibition at 0.1 µM was 1%, the inhibition at 0.3 µM is 27%, the inhibition at 1 µM came to 62% and the inhibition at 3 µM was found to be 97%.
The like results for `CCCCN(CC(=O)O)c1cc(-c2ccc(OC(F)(F)F)cc2)ccc1Oc1ccc(C(C)(C)C)cc1` [Compound 428] were, in that order, 18%, 36%, 92% and 94%.
As for `CCCCCCOc1ccc(-c2ccc(OC(F)(F)F)cc2)cc1OC(CCCCCC)C(=O)O` (stereo not drawn) [Compound 429], the inhibition at 0.1 µM was determined as 7%, the inhibition at 0.3 µM was 9%, the inhibition at 1 µM is 93% and the inhibition at 3 µM was 95%.
The like results for `CCCCCCOc1cc(-c2ccc(OC(F)(F)F)cc2)ccc1OC(CCCCCC)C(=O)O` (stereo not drawn) [Compound 430] were, in that order, 1%, 15%, 97% and greater than 99%.
On to `CC(C)(C)c1ccc(Oc2ccc(Nc3ccc(OC(F)(F)F)cc3)cc2/C=C/C(=O)O)cc1` [Compound 431], for which the inhibition at 0.1 µM came out at 0%, the inhibition at 0.3 µM stood at 0%, the inhibition at 1 µM was 77% and the inhibition at 3 µM is greater than 99%.
Consider `CC(C)(C)c1ccc(Oc2ccc(Nc3ccc(OC(F)(F)F)cc3)cc2CCC(=O)O)cc1` [Compound 432], for which the inhibition at 0.1 µM is 4%, the inhibition at 0.3 µM was 0%, the inhibition at 1 µM was found to be 25% and the inhibition at 3 µM came out at 97%.
For `CCCCN(CC(=O)O)c1cc(-c2ccc(OC(F)(F)F)cc2)ccc1OCCCCc1ccccc1` [Compound 433] the same measures were 13%, 6%, 41% and 98%.
For `CC(C)(C)c1ccc(Oc2cc(-c3ccc(OC(F)(F)F)cc3)ccc2C(=O)O)cc1` [Compound 434] the same measures were 14%, 8%, 66% and greater than 99%.
For `CCCN(CC(=O)O)c1cc(-c2ccc(OC(F)(F)F)cc2)ccc1Oc1ccc(C(C)(C)C)cc1` [Compound 435] the same measures were 12%, 29%, 81% and 98%.
